According to PubChem BioAssay (NCI):
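Cultured in 96-well plates, cells were exposed to test compound for 48 hours across five concentrations. Here, GI50 denotes the concentration required for 50% inhibition of growth. Definition used: TGI = concentration required for complete inhibition of growth.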 *1 amine or outer side, *2 acyl side, *3 side chain or, on linkers, in order; H or OH if unused. Where a SMILES comes first, the peptide text is derived from it. Bridges are numbered along the chain shown (N, C = ends). Roman numbers before positions name the chains, in order. [ ]: non-standard residue; d: D form. Actinocin(9to1) = Cc1c2oc3c(C)ccc(C(=O)[*:1])c3nc-2c(C(=O)[*:2])c(N)c1=O; Hyp = O=C(O)[CH]1C[CH](O)CN1; NMeV = CN[CH](C(=O)O)C(C)C; Sar = CNCC(=O)O

Legend:
Test in all cases: inhibition of tumour cell growth, NCI panel, 48 h
786-0 renal = system: 786-0 renal
A549 NSCLC = system: A549 NSCLC
CCRF-CEM leukemia = system: CCRF-CEM leukemia
DU-145 prostate = system: DU-145 prostate
EKVX NSCLC = system: EKVX NSCLC
MALME-3M melanoma = system: MALME-3M melanoma
MDA-MB-435 = system: MDA-MB-435
MDA-N = system: MDA-N
NCI-H23 lung = system: NCI-H23 lung
NCI-H522 lung = system: NCI-H522 lung
OVCAR-3 ovarian = system: OVCAR-3 ovarian
OVCAR-5 ovarian = system: OVCAR-5 ovarian
SF-268 CNS = system: SF-268 CNS
SK-MEL-2 melanoma = system: SK-MEL-2 melanoma
SNB-19 CNS = system: SNB-19 CNS

| SMILES | TGI (786-0 renal) [µM] | TGI (A549 NSCLC) [µM] | TGI (CCRF-CEM leukemia) [µM] | TGI (DU-145 prostate) [µM] | TGI (EKVX NSCLC) [µM] | TGI (MALME-3M melanoma) [µM] | TGI (MDA-MB-435) [µM] | TGI (MDA-N) [µM] | TGI (NCI-H23 lung) [µM] | TGI (NCI-H522 lung) [µM] | TGI (OVCAR-3 ovarian) [µM] | TGI (OVCAR-5 ovarian) [µM] | TGI (SF-268 CNS) [µM] | TGI (SK-MEL-2 melanoma) [µM] | TGI (SNB-19 CNS) [µM] | GI50 (CCRF-CEM leukemia) [µM] |
| --- | --- | --- | --- | --- | --- | --- | --- | --- | --- | --- | --- | --- | --- | --- | --- | --- |
| COc1cc(Cc2cnc(N)nc2N)cc(OC)c1OCCCNc1ccc([N+](=O)[O-])cc1 | 28 | 35.2 | 35.2 | 30.2 | 32 | 25.8 | 29.8 | 32.9 | 31.8 | 26.3 | 28.1 | 35.5 | 74 | 29.5 | 27 | – |
| Cc1cc(S(=O)(=O)Nc2nncn2-c2ccc(Cl)cc2)c(S)cc1Cl | > 10 | > 10 | > 10 | > 10 | > 10 | > 10 | > 10 | > 10 | > 10 | > 10 | > 10 | > 10 | > 10 | > 10 | > 10 | – |
| O=[N+]([O-])c1cc(F)ccc1S(=O)(=O)c1ccccc1 | > 10 | > 10 | > 10 | > 10 | > 10 | > 10 | > 10 | > 10 | > 10 | 5.34 | > 10 | > 10 | > 10 | > 10 | > 10 | – |
| CC(C)(C)NC(=O)/C(=C\Sc1ccccc1)c1ccccc1 | > 100 | > 100 | > 100 | > 100 | > 100 | > 100 | > 100 | > 100 | > 100 | > 52.1 | > 100 | > 100 | > 87.8 | > 100 | > 100 | – |
| CCOC(=O)/C=C(\C(=O)OCC)n1cc(Cl)c(=O)n(CC(=O)OCC)c1=O | 3.14 | 45.8 | 36.1 | 31.1 | 30.9 | 3.85 | 35.5 | 24 | 42.6 | 1.85 | 8.69 | 33.3 | 32.7 | 32 | 39 | 16.5 |
| Cc1c2oc3c(C)ccc(C(=O)NC4C(=O)NC(C(C)C)C(=O)N5CC(O)CC5C(=O)N(C)CC(=O)N(C)C(C(C)C)C(=O)OC4C)c3nc-2c(C(=O)NC2C(=O)NC(C(C)C)C(=O)N3CC(O)CC3C(=O)N(C)CC(=O)N(C)C(C(C)C)C(=O)OC2C)c(N)c1=O (stereo unspecified) (I: TV[Hyp][Sar][NMeV] / II: TV[Hyp][Sar][NMeV]; ester I:1-I:C, II:1-II:C; linker I:N-II:N via Actinocin(9to1); configuration not given here) | > 1 | > 1 | > 1 | > 1 | > 1 | > 1 | > 1 | > 1 | > 1 | > 1 | > 1 | > 1 | > 1 | > 1 | > 1 | – |
| O=C1CSC(c2ccc([N+](=O)[O-])cc2)N1c1ccc(-c2ccc(-n3c(-c4ccccc4)nc4ccccc4c3=O)cc2)cc1 (stereo unspecified) | > 100 | > 100 | > 100 | > 100 | > 100 | > 100 | > 100 | > 100 | > 100 | > 100 | > 100 | > 100 | > 100 | > 100 | > 100 | – |
| c1ccc(Nc2nn3c(CCCCCCCCc4nnc5sc(Nc6ccccc6)nn45)nnc3s2)cc1 | 79.5 | > 100 | 63.9 | > 100 | > 100 | > 100 | 84 | 46.6 | > 100 | 81.2 | > 100 | > 100 | > 100 | > 100 | > 100 | – |
| COC(=O)c1c(C)cccc1C1CN=NC12Cc1cc(C)cc(C)c1C2=O (stereo unspecified) | > 100 | > 100 | 63.8 | > 100 | > 100 | > 100 | > 100 | > 100 | 78.4 | 41.2 | > 100 | > 100 | > 100 | > 100 | > 100 | – |
| CCCCc1ccc(Nc2nc(Cl)c3c(ncn3C3CC(Oc4ccc(C)cc4)C(COc4ccc(C)cc4)O3)n2)cc1 (stereo unspecified) | > 100 | > 100 | > 100 | > 100 | > 100 | > 100 | > 100 | > 100 | > 100 | > 100 | > 100 | > 100 | > 100 | > 100 | > 100 | – |
| CC1SC2(CCCCC2)N(NC(=O)CSc2nc3ccc(Cl)cc3c(=O)n2-c2ccccc2)C1=O (stereo unspecified) | 34.9 | > 100 | > 100 | 85.8 | > 100 | 60.6 | 54.7 | 36.2 | 57.4 | 34.1 | 32.8 | 58.4 | 54.8 | 31.8 | 66.9 | – |
| C/C=C(\C)C(=O)O[C@@H]1CC(C)(C)CC2C3=CCC4[C@]56CC[C@](O)(OC5)C(C)(C)C6CC[C@@]4(C)C3(C)CC[C@]21C(=O)O (stereo partly specified) | > 100 | > 100 | > 100 | > 100 | > 100 | > 100 | > 100 | > 100 | > 100 | > 100 | > 100 | > 100 | > 100 | > 100 | > 100 | – |
| COc1ccc2c(c1)NC1(CCN(CCCC(=O)c3ccc(F)cc3)CC1)N=N2 | 36.9 | > 100 | 58.5 | 46.8 | > 100 | 30.6 | 31.4 | 31.6 | 97.7 | 33.9 | 53.5 | 61.1 | > 100 | 39.8 | > 100 | – |
| Nc1ccc2ccc(N3CCNCC3)nc2n1 | > 100 | > 100 | > 100 | > 100 | > 100 | > 100 | > 100 | > 100 | > 100 | > 100 | > 100 | > 100 | > 100 | > 100 | > 100 | – |
| N/C(=N\Nc1ccc(Cl)cc1)c1cnccn1 | > 100 | > 100 | > 100 | > 100 | > 100 | > 100 | > 100 | > 100 | > 100 | > 100 | > 100 | > 100 | > 100 | > 100 | > 100 | – |
| O=C(O)c1c2c(cc3c1CC1(Cc4cc5c(cc4C1=O)CCC5)C3)CCC2 (stereo unspecified) | > 100 | > 100 | > 100 | > 100 | > 100 | > 100 | > 100 | > 100 | > 100 | > 100 | > 100 | > 100 | > 100 | > 100 | > 100 | – |
| COC(=O)[C@]1(c2cc3ccccc3[nH]2)CC2CN(C(=O)OCc3ccccc3)C1CC2=O (stereo partly specified) | > 100 | 91.5 | > 100 | > 100 | 43.7 | 56.4 | > 100 | > 100 | > 100 | 66.8 | > 100 | 27.9 | > 100 | 38.2 | > 100 | – |
| Nn1c(=O)[nH]c2ncn(Cc3ccccc3)c2c1=O | > 100 | > 100 | > 100 | > 100 | > 100 | > 100 | > 100 | > 100 | > 100 | > 100 | > 100 | > 100 | > 100 | > 100 | > 100 | – |
| COC(=O)C(Cc1c[nH]c2ccccc12)NP(=O)(O)OCC1OC(n2cc(Br)c(=O)[nH]c2=O)CC1O (stereo unspecified) | > 100 | > 100 | > 100 | > 100 | > 100 | > 100 | > 100 | > 100 | > 100 | > 100 | > 100 | > 100 | > 100 | > 100 | > 100 | – |
| COc1cccc2cc(C(=O)Nc3ccccc3)c(=N)oc12 | > 100 | > 100 | > 100 | > 100 | > 100 | > 100 | > 100 | > 100 | > 100 | > 100 | > 100 | > 100 | > 100 | > 100 | > 100 | – |
| CCCCc1ccc(Nc2nc(Cl)c3ccn(C4CC(Oc5ccc(C)cc5)C(COc5ccc(C)cc5)O4)c3n2)cc1 (stereo unspecified) | > 46.4 | > 46.4 | > 46.4 | > 46.4 | 38 | 32.9 | > 46.4 | > 46.4 | 30.8 | 30.7 | > 100 | > 31.6 | > 100 | > 46.4 | 31.8 | – |
